In paper PMC9008879, “Inhibition of CYP3A-mediated Midazolam Metabolism by Kaempferia Parviflora” (Food Safety, 2022):

What was measured:
[1] = test system: CYP3A; parameters: method as in PMID 29550915; settings: mice, 5,7-DMF for ten days; cited from earlier work
[2] = test system: CYP3A; assay: Pre-incubation study (time-dependent / mechanism-based inhibition) of MDZ 1'-OH activity in human liver microsomes; assay type: in vitro ADME; settings: for Change of MDZ 1'-OH activity after pre-incubation: HLM, pre-incubation 0-30 min with or without NADPH, KP extract 120 µg/ml, 5,7-DMF 30 µM, 3,5,7,3',4'-PMF 20 µM; for KI (inactivation) / kinact / kinact/KI: human, human liver microsomes, probe midazolam (MDZ) 10 µM, 1'-hydroxylation, HLM + NADPH, 10-fold dilution; for KI (inactivation): pre-incubation 5-30 min, read-out: KI (inhibitor concentration causing half-maximal inactivation); for kinact / kinact/KI: pre-incubation; for kinact: read-out: kinact (maximal inactivation rate constant) (converted); for kinact/KI: read-out: kinact/KI (efficiency of inactivation) (converted)
Protocol: Pre-incubation studies were performed to determine whether the metabolic intermediates produced by KP ingredients cause an MBI that inactivates CYP3A. KP extract (120 µg/ml), 5,7-DMF (30 µM), or 3,5,7,3’,4’-PMF (20 µM) was pre-incubated with HLM at 37°C for 10, 20, or 30 min, in the presence or absence of a NADPH-generating system. After the pre-incubation step, MDZ was added, and MDZ 1’-OH activity was assayed as described above.
In addition, another assay was designed to minimize the direct inhibition of CYP3A by KP ingredients by diluting the contents of the inactivation mixture 10-fold. As a primary incubation mixture, KP extract (30-120 µg/ml), 5,7-DMF (6-30 µM), or 3,5,7,3’,4’-PMF (5-20 µM) were pre-incubated in the presence of HLM and a NADPH-generating system at 37°C. Pre-incubation times were 5, 10, 15, or 20 min for KP extract, and 5, 10, 20, or 30 min for 5,7-DMF and 3,5,7,3’,4’-PMF. At determined time points, an aliquot of 50 µL of the primary reaction mixture was moved to 450 µL of the secondary incubation mixture containing 10 µM MDZ, and further incubated for 5 min. The oxidation of MDZ was analyzed as described above.
The decrease in the natural logarithm of the % residual MDZ 1’-OH activity against pre-incubation time was plotted for each inhibitor concentration, and the apparent inactivation rate constant (Kobs) values were described as the negative slopes of the lines. The maximal inactivation rate constant (kinact) and the inhibitor concentration causing half-maximal inactivation (KI) were estimated by double-reciprocal plot of the Kobs against the inhibitor concentration. The efficiency of inactivation was calculated as the ratio of kinact to KI.

[3] = test system: CYP3A; assay: Direct inhibition of CYP3A-mediated MDZ 1'-hydroxylation activity in human liver microsomes; assay type: in vitro ADME; settings: HLM, 10 µM MDZ; 5,7-DMF 0.03-30 µM, 3,5,7,3',4'-PMF 0.02-20 µM, no pre-incubation
Protocol: An in vitro study was carried out to investigate the inhibitory effects of KP extract, 5,7-DMF, and 3,5,7,3’,4’-PMF on CYP3A-mediated MDZ 1’-hydroxylation (MDZ 1’-OH) activity.
The reaction mixtures, each with a total volume of 200 µL, consisting of 100 µg pooled HLM, 10 µM MDZ, and a nicotinamide adenine dinucleotide phosphate (NADPH)-generating system (1 mM NADPH, 8 mM glucose 6-phosphate, and 0.5U glucose 6-phosphate dehydrogenase) in 80 mM phosphate buffer (pH 7.4), were incubated at 37°C for 5 min in the presence of KP extract (40-80 µg/ml), 5,7-DMF (0.03-30 µM), or 3,5,7,3’,4’-PMF (0.02-20 µM). […] After centrifugation at 20,800 × g for 10 min at 4°C, the supernatant was injected into an HPLC apparatus equipped with a CAPCELLPAK C18 SG120 column (4.6 mm × 250 mm, Shiseido) and 1’-hydroxymidazolam was analyzed according to a previous report[20]^,[21]^). Control activity was determined under the same conditions with a reaction mixture containing water, 1% methanol, or 1% acetonitrile instead of KP extract, 5,7-DMF, or 3,5,7,3’,4’-PMF. Results were expressed as a percentage of each control activity. The inhibition mode and inhibition constant (Ki) values of KP extract on MDZ 1’-OH activity were calculated using nonlinear regression analysis using GraphPad Prism 7.03 (GraphPad Software Inc., La Jolla, CA, USA).

[4] = test system: CYP3A4; parameters: method as in PMID 17709371; settings: HLM and recombinant microsomes; cited from earlier work

SMILES	AUC of MDZ [1]	Elimination half-life (t1/2) of MDZ [1]	Hepatic CYP3A expression [1]	Change of MDZ 1'-OH activity after pre-incubation [2]	KI (inactivation) [2] [µM]	kinact [2] [s⁻¹]	kinact/KI [2] [M⁻¹ s⁻¹]	Direct inhibition of MDZ 1'-OH activity [3]	Metabolizing CYP enzymes [4]
COc1cc(OC)c2c(=O)cc(-c3ccccc3)oc2c1 [5,7-DMF, 5,7-dimethoxyflavone]	increased	increased	decreased	time- and NADPH-dependent decrease	10.7	0.000433	40	did not inhibit	not metabolized by CYP3A4, but by CYP1A1 and CYP1A2
COc1cc(OC)c2c(=O)c(OC)c(-c3ccc(OC)c(OC)c3)oc2c1 [3,5,7,3’,4’-PMF, 3,5,7,3’,4’-pentamethoxyflavone]				time- and NADPH-dependent decrease	25.5	2.67e-05	1.05	did not inhibit	
